This assay has as its system truies. The assay is described as follows: Synchronisation of parturition in sows: interval between injection of the active principle and farrowing. The note with it: single i.m. injection on day 113 of gestation (Ho = 9 h); for intervalle de temps entre l'injection du principe actif et la mise bas: 20 à 30 H (number of animals) / intervalle de temps entre l'injection du principe actif et la mise bas: 30 à 36 H (number of animals) / intervalle de temps entre l'injection du principe actif et la mise bas: - 20 H (number of animals): produit A 2 mg/kg (n = 24); for intervalle de temps entre l'injection du principe actif et la mise bas: 20 à 30 H (number of animals) / intervalle de temps entre l'injection du principe actif et la mise bas: 20 à 30 H (% des animaux): farrowing 20 to 30 h after injection; for intervalle de temps entre l'injection du principe actif et la mise bas: 30 à 36 H (number of animals) / intervalle de temps entre l'injection du principe actif et la mise bas: 30 à 36 H (% des animaux): farrowing 30 to 36 h after injection; for intervalle de temps entre l'injection du principe actif et la mise bas: - 20 H (number of animals) / intervalle de temps entre l'injection du principe actif et la mise bas: - 20 H (% des animaux): farrowing less than 20 h after injection; for intervalle de temps entre l'injection du principe actif et la mise bas: 20 à 30 H (% des animaux) / intervalle de temps entre l'injection du principe actif et la mise bas: 30 à 36 H (% des animaux) / intervalle de temps entre l'injection du principe actif et la mise bas: - 20 H (% des animaux): produit A 2 mg/kg. The format is in vivo. The source says: L'essai a été réalisé chez des truies. Les truies ont été sélectionnées en fonction des critères suivants : • truies de même origine (même schéma de sélection), • truies de même rang de parturition (3ème), • saillie par le même verrat ou insémination artificielle avec semence de même origine, • nombre de saillies ou d'inséminations identiques, • saillie ou insémination sur première chaleur post-sevrage (intervalle sevrage saillie identique ou très proche), • durée d'allaitement identique.
Les truies sont divisées en 3 lots de n animaux : • un lot témoin ne reçoit aucun produit, • un lot reçoit une injection intra-musculaire de 2 mg/kg de produit A ou 17béta-hydroxy 11béta-(4-diméthylaminophényl) 17alpha-(prop-1-ynyl) estra-4,9-dièn-3-one, le 113ème jour de la gestation, • un lot reçoit une injection intra-musculaire de 175 mcg de cloprosténol sous forme de PLANATE^ R par truie, le 113 ème jour de la gestation.
On a mesuré l'intervalle de temps entre l'injection du principe actif et la mise bas : le tableau suivant résume les résultats obtenus.
1.- Animaux traités (Ho = 9 heures le 113ème jour de gestation.

Setting [1] is: cloprosténol 175 mcg per sow (n = 23).

SMILES strings stand for the structures.

As to `O=C(O)CCC/C=C\CC1C(O)CC(O)C1/C=C/C(O)COc1cccc(Cl)c1` (centres unmarked) [Cloprosténol, cloprosténol], under “cloprosténol 175 mcg per sow (n = 23), farrowing more than 36 h after injection”, the “intervalle de temps entre l'injection du principe actif et la mise bas: + 36 H (number of animals)” value is listed as 3. The “intervalle de temps entre l'injection du principe actif et la mise bas: + 36 H (% des animaux)” value (cloprosténol 175 mcg per sow, farrowing more than 36 h after injection) worked out at 13%. Also, under setting [1], the “intervalle de temps entre l'injection du principe actif et la mise bas: 20 à 30 H (number of animals)” value turned out to be 18, the “intervalle de temps entre l'injection du principe actif et la mise bas: 30 à 36 H (number of animals)” value came out at 1 and the “intervalle de temps entre l'injection du principe actif et la mise bas: - 20 H (number of animals)” value worked out at 1. For the same compound, where the note is “cloprosténol 175 mcg per sow”, the “intervalle de temps entre l'injection du principe actif et la mise bas: 20 à 30 H (% des animaux)” value was 78%, the “intervalle de temps entre l'injection du principe actif et la mise bas: 30 à 36 H (% des animaux)” value was 4,5% and the “intervalle de temps entre l'injection du principe actif et la mise bas: - 20 H (% des animaux)” value is reported as 4,5%.

As for `CC#C[C@]1(O)CC[C@H]2[C@@H]3CCC4=CC(=O)CCC4=C3[C@@H](c3ccc(N(C)C)cc3)C[C@@]21C` [Produit A, 17béta-hydroxy 11béta-(4-diméthylaminophényl) 17alpha-(prop-1-ynyl) estra-4,9-dièn-3-one], under setting [1], the “intervalle de temps entre l'injection du principe actif et la mise bas: 20 à 30 H (number of animals)” value was found to be 22, the “intervalle de temps entre l'injection du principe actif et la mise bas: 30 à 36 H (number of animals)” value is given as 1 and the “intervalle de temps entre l'injection du principe actif et la mise bas: - 20 H (number of animals)” value is recorded as 1. Also, under “cloprosténol 175 mcg per sow”, the “intervalle de temps entre l'injection du principe actif et la mise bas: 20 à 30 H (% des animaux)” value worked out at 92%, the “intervalle de temps entre l'injection du principe actif et la mise bas: 30 à 36 H (% des animaux)” value stood at 4% and the “intervalle de temps entre l'injection du principe actif et la mise bas: - 20 H (% des animaux)” value came out at 4%.

Source of the values: patent publication EP0446124A2, “Use of antiprogestomimetics to synchronise parturition in livestock” (ROUSSEL UCLAF, priority 1990, dated 1991).
